# Data reported in ChEMBL document CHEMBL5352412, “Discovery of 1,2-diphenylethene derivatives as human DNA topoisomerase II catalytic inhibitors and antitumor agents” (Eur J Med Chem, 2022).
# pIC50: −log10 of the molar value. The source made the active and inactive calls. No cut-off for these calls is given here.
# Tests used:
# [1] = test system: HepG2; assay: Induction of apoptosis in human HepG2 cells assessed as early apoptotic cells at 1 uM incubated for 24 hrs by annexin-V FITC and PI staining based flow cytometry analysis (reference value: 3.7%); type: functional
# [2] = test system: HCT-116; assay: Antiproliferative activity against human HCT-116 cells incubated for 72 hrs by CCK8 assay; type: functional, cell-based; details: HCT-116, 72 h
# [3] = test system: HepG2; assay: Induction of apoptosis in human HepG2 cells assessed as necrotic cells at 0.5 uM incubated for 24 hrs by annexin-V FITC and PI staining based flow cytometry analysis (reference value: 0.2%); type: functional
# [4] = Selectivity index, ratio of IC50 for human HL-7702 cells to IC50 for human A549 cells; type: toxicity; details: HL-7702 cells versus A549 cells, read-out: Ratio IC50
# [5] = test system: A549; assay: Antiproliferative activity against human A549 cells incubated for 72 hrs by CCK8 assay; type: functional, cell-based; details: A549, 72 h
# [6] = species: Homo sapiens; assay: Selectivity index, ratio of IC50 for human CCL-226 cells to IC50 for human A549 cells
# [7] = test system: HepG2; assay: Induction of apoptosis in human HepG2 cells assessed as late apoptotic cells at 0.5 uM incubated for 24 hrs by annexin-V FITC and PI staining based flow cytometry analysis (reference value: 2.3%); type: functional
# [8] = test system: HepG2; assay: Induction of apoptosis in human HepG2 cells assessed as early apoptotic cells at 0.5 uM incubated for 24 hrs by annexin-V FITC and PI staining based flow cytometry analysis (reference value: 3.7%); type: functional
# [9] = Selectivity index, ratio of IC50 for human BEAS-2B cells to IC50 for human HCT-116 cells; type: toxicity; details: BEAS-2B cells versus HCT-116 cells, read-out: Ratio IC50
# [10] = Antiproliferative activity against human HL7702 cells incubated for 72 hrs by CCK8 assay; type: toxicity, cell-based; details: HL7702 (L02) cells
# [11] = test system: HepG2; assay: Upregulation of gamma-H2AX level in human HepG2 cells incubated for 4 hrs by Western blotting analysis; type: functional, cell-based
# [12] = target: T1, DNA topoisomerase 2-alpha (Homo sapiens, UniProt P11388); assay: Inhibition of human topoisomerase 2-alpha assessed as reduction in relaxation of pBR322 DNA at 100 uM measured after 30 mins by agarose gel electrophoresis method relative to control
# [13] = Antiproliferative activity against human CCL-226 cells incubated for 72 hrs by CCK8 assay; type: toxicity, cell-based
# [14] = Selectivity index, ratio of IC50 for human HL-7702 cells to IC50 for human HCT-116 cells; type: toxicity; details: HL-7702 cells versus HCT-116 cells, read-out: Ratio IC50
# [15] = test system: HepG2; assay: Induction of apoptosis in human HepG2 cells assessed as viable cells at 0.5 uM incubated for 24 hrs by annexin-V FITC and PI staining based flow cytometry analysis (reference value: 93.8%); type: functional; details: read-out: Activity
# [16] = Selectivity index, ratio of IC50 for human BEAS-2B cells to IC50 for human MDA-MB-231 cells; type: toxicity; details: BEAS-2B cells versus MDA-MB-231 cells, read-out: Ratio IC50
# [17] = Selectivity index, ratio of IC50 for human HL-7702 cells to IC50 for human HepG2 cells; type: toxicity; details: HL-7702 cells versus HepG2 cells, read-out: Ratio IC50
# [18] = Selectivity index, ratio of IC50 for human BEAS-2B cells to IC50 for human PC-3 cells; type: toxicity; details: BEAS-2B cells versus PC-3 cells, read-out: Ratio IC50
# [19] = species: Homo sapiens; assay: Selectivity index, ratio of IC50 for human CCL-226 cells to IC50 for human HepG2 cells
# [20] = Selectivity index, ratio of IC50 for human BEAS-2B cells to IC50 for human A549 cells; type: toxicity; details: BEAS-2B cells versus A549 cells, read-out: Ratio IC50
# [21] = test system: HepG2; assay: Induction of apoptosis in human HepG2 cells assessed as necrotic cells at 1 uM incubated for 24 hrs by annexin-V FITC and PI staining based flow cytometry analysis (reference value: 0.2%); type: functional
# [22] = test system: HepG2; assay: Induction of apoptosis in human HepG2 cells assessed as viable cells at 1 uM incubated for 24 hrs by annexin-V FITC and PI staining based flow cytometry analysis (reference value: 93.8%); type: functional; details: read-out: Activity
# [23] = test system: HepG2; assay: Induction of cell cycle arrest in human HepG2 cells assessed as accumulation of cells at G1 phase at 1 uM incubated for 24 hrs by PI staining based flow cytometry analysis (reference value: 54%); type: functional
# [24] = target: T1, DNA topoisomerase 2-alpha; assay: Inhibition of human topoisomerase 2-alpha assessed as reduction in relaxation of pBR322 DNA measured after 30 mins by agarose gel electrophoresis method
# [25] = target: T1, DNA topoisomerase 2-alpha; assay: Inhibition of human topoisomerase 2-alpha assessed as reduction in relaxation of pBR322 DNA at 25 uM measured after 30 mins by agarose gel electrophoresis method relative to control
# [26] = Selectivity index, ratio of IC50 for human BEAS-2B cells to IC50 for human HepG2 cells; type: toxicity; details: BEAS-2B cells versus HepG2 cells, read-out: Ratio IC50
# [27] = Selectivity index, ratio of IC50 for human BEAS-2B cells to IC50 for human HeLa cells; type: toxicity; details: BEAS-2B cells versus HeLa cells, read-out: Ratio IC50
# [28] = test system: HepG2; assay: Induction of cell cycle arrest in human HepG2 cells assessed as accumulation of cells at G2/M phase at 0.5 uM incubated for 24 hrs by PI staining based flow cytometry analysis (reference value: 17.5%); type: functional
# [29] = species: Homo sapiens; assay: Selectivity index, ratio of IC50 for human CCL-226 cells to IC50 for human MDA-MB-231 cells
# [30] = target: T1, DNA topoisomerase 2-alpha; assay: Inhibition of human topoisomerase 2-alpha using pBR322 DNA as substrate incubated for 30 mins in presence of 0.5 to 5 mM ATP (reference value: 3.4 microM)
# [31] = Selectivity index, ratio of IC50 for human HL-7702 cells to IC50 for human MDA-MB-231 cells; type: toxicity; details: HL-7702 cells versus MDA-MB-231 cells, read-out: Ratio IC50
# [32] = test system: PC-3; assay: Antiproliferative activity against human PC-3 cells incubated for 72 hrs by CCK8 assay; type: functional, cell-based; details: PC-3, 72 h
# [33] = target: T1, DNA topoisomerase 2-alpha; assay: Inhibition of human topoisomerase 2-alpha using pBR322 DNA as substrate incubated for 1 hr in presence of ATP by malachite green phosphate method
# [34] = test system: HepG2; assay: Induction of cell cycle arrest in human HepG2 cells assessed as accumulation of cells at G1 phase at 0.5 uM incubated for 24 hrs by PI staining based flow cytometry analysis (reference value: 54%); type: functional
# [35] = test system: HepG2; assay: Induction of cell cycle arrest in human HepG2 cells assessed as accumulation of cells at S phase at 1 uM incubated for 24 hrs by PI staining based flow cytometry analysis (reference value: 28.2%); type: functional
# [36] = species: Homo sapiens; assay: Selectivity index, ratio of IC50 for human CCL-226 cells to IC50 for human HeLa cells
# [37] = Antiproliferative activity against human BEAS-2B cells incubated for 72 hrs by CCK8 assay; type: toxicity, cell-based
# [38] = target: DNA topoisomerase 2-beta (Homo sapiens, UniProt Q02880); assay: Inhibition of human topoisomerase 2-beta assessed as reduction in relaxation of pBR322 DNA measured after 30 mins by agarose gel electrophoresis method
# Chain of DNA topoisomerase 2-beta (Q02880 whole entry): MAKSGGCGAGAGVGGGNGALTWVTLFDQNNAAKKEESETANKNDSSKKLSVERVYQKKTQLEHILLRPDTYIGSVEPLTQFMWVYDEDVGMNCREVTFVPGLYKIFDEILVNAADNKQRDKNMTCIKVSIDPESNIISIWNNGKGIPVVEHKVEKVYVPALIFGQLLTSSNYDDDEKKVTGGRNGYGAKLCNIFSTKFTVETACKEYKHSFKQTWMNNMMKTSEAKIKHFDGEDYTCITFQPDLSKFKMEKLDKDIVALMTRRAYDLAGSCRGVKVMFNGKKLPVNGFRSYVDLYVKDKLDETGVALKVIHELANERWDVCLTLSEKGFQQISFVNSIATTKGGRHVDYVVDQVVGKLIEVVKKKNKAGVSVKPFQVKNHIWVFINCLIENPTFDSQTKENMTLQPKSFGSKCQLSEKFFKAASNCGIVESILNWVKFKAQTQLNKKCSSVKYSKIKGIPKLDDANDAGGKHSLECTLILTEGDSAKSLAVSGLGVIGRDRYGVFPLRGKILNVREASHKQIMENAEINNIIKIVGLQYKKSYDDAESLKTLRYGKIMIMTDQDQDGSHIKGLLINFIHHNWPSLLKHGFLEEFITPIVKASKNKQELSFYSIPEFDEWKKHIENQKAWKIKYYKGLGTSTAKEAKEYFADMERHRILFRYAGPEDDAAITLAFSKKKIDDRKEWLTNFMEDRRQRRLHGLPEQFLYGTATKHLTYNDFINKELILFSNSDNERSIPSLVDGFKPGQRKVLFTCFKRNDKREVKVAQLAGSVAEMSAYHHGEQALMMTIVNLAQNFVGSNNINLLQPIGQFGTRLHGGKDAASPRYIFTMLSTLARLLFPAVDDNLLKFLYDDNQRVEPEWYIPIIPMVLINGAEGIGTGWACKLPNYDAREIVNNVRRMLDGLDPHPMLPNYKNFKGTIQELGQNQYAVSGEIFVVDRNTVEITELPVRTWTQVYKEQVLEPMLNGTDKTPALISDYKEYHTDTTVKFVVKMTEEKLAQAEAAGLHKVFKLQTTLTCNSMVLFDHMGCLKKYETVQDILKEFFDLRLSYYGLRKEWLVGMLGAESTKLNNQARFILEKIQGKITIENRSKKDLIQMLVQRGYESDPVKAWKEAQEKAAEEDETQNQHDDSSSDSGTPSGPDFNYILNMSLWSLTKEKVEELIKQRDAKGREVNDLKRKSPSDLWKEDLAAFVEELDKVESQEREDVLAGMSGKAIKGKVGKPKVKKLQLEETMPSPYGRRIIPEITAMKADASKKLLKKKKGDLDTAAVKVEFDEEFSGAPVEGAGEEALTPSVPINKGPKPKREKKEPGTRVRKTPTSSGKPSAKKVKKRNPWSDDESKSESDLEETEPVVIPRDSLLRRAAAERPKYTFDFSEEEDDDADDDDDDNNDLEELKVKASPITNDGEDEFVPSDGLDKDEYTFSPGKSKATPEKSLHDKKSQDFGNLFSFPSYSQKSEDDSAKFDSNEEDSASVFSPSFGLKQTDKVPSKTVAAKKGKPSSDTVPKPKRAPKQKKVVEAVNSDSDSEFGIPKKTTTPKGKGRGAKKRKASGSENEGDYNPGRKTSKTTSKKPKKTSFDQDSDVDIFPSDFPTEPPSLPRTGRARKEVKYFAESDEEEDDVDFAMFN
# T1 sequence (P11388 whole entry): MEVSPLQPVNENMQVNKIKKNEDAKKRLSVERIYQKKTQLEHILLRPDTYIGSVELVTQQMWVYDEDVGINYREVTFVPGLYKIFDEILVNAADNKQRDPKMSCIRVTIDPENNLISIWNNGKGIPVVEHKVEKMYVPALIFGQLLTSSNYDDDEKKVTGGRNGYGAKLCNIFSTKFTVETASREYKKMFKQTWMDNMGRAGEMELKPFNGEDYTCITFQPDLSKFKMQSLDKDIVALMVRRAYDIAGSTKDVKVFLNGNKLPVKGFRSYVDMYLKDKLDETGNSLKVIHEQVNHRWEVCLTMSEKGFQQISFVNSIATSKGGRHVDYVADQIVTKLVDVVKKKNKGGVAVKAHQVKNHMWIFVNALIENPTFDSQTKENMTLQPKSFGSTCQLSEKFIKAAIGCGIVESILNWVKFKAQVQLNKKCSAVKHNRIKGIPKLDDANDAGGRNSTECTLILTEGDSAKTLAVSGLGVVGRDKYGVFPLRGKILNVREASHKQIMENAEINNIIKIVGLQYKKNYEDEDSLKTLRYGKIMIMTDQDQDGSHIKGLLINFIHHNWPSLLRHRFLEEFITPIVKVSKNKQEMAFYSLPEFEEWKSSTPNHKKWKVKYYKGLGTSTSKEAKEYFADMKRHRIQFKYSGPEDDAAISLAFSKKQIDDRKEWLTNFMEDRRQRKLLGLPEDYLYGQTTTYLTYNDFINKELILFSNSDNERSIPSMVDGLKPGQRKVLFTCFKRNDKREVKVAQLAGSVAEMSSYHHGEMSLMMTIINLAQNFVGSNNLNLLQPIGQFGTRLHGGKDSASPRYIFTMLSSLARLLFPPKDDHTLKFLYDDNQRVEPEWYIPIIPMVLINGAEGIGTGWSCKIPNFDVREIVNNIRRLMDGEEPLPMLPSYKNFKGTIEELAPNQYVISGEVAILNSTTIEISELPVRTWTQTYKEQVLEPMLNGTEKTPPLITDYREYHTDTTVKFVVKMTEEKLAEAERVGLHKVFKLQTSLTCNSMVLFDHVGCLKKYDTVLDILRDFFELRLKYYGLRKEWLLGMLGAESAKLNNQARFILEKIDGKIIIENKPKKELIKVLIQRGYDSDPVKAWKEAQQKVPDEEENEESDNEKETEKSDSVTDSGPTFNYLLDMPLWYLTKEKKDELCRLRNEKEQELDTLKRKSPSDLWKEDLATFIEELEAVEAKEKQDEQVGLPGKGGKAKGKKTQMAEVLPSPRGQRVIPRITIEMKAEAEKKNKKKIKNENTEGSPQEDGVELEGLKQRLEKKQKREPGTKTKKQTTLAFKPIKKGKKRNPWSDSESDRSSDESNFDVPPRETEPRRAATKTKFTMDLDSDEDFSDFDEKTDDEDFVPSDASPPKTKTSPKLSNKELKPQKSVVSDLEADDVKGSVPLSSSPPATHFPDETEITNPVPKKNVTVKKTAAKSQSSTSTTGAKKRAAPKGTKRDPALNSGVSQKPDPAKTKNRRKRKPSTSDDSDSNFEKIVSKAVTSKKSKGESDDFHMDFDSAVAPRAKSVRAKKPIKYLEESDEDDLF
smiles,measurement,setting,value
O=C(CCc1ccccc1)Nc1ccc(-c2ccc3cc(O)ccc3c2)cc1,Activity,[1],24.5%
same,pIC50,[2],6.70
same,Activity,[3],0.1%
same,selectivity ratio,[4],> 52.1
same,pIC50,[5],6.52
same,Ratio IC50,[6],> 52.1
same,Activity,[7],13.4%
same,Activity,[8],14%
same,selectivity ratio,[9],> 52.1
same,IC50 at 72 h,[10],16.7 µM
same,Activity,[11],inactive
same,inhibition,[12],82.1%
same,IC50 at 72 h,[13],> 50 µM
same,selectivity ratio,[14],> 52.1
same,viability at 0.5 µM,[15],72.5%
same,selectivity ratio,[16],> 52.1
same,selectivity ratio,[17],> 52.1
same,selectivity ratio,[18],> 52.1
same,Ratio IC50,[19],> 52.1
same,selectivity ratio,[20],> 52.1
same,Activity,[21],0.3%
same,viability at 1 µM,[22],29.2%
same,Activity,[23],3.3%
same,pIC50,[24],5.42
same,inhibition,[25],84.6%
same,selectivity ratio,[26],> 52.1
same,selectivity ratio,[27],> 52.1
same,Activity,[28],48.9%
same,Ratio IC50,[29],> 52.1
same,pIC50,[30],4.87
same,selectivity ratio,[31],> 52.1
same,pIC50,[32],6.52
same,inhibition,[33],Dose-Dependent Effect
same,Activity,[34],19%
same,Activity,[35],11.2%
same,Ratio IC50,[36],> 52.1
same,IC50 at 72 h,[37],31.9 µM
same,pIC50,[38],5.00
